BindingDB's records for doi:10.1021/jm970522y (Parke-Davis Pharmaceutical Research, 1997)

Each compound was assayed against T1, Dimer of Gag-Pol polyprotein [489-587] (Human immunodeficiency virus 1, UniProt P12497) (assay: Protease Inhibition Assay). Conditions: pH 6.2; 37 °C.
T1 construct: 489-587
Experimental: For determination of IC50 values, HIV-1 protease was added to assay buffer containing inhibitor and the substrate (H-His-Lys-Ala-Arg-Val-Leu- (p-NO2) Phe-Glu-Ala-norleucine-Ser-NH2). The Leu- (p-NO2) Phe bond of the substrate was cleaved by the enzyme, and the substrate and products were separated by reversed-phase HPLC. Absorbance was measured at 220 nm, peak areas were determined, and percentage conversion to product was calculated.

SMILES	IC50
COCc1cc(C(C)(C)C)c(SC2C(=O)CC(CCc3ccccc3)(c3ccc(OCCO)cc3)OC2=O)cc1C (stereo not drawn) [3-{[2-tert-butyl-4-(methoxymethyl)-5-methylphenyl]sulfanyl}-4-hydroxy-6-[4-(2-hydroxyethoxy)phenyl]-6-(2-phenylethyl)-5,6-dihydro-2H-pyran-2-one]	4.5 nM
Cc1cc(SC2C(=O)CC(CCc3ccc(O)cc3)(C(C)C)OC2=O)c(C(C)(C)C)cc1CO (stereo not drawn) [3-{[2-tert-butyl-4-(hydroxymethyl)-5-methylphenyl]sulfanyl}-4-hydroxy-6-[2-(4-hydroxyphenyl)ethyl]-6-(propan-2-yl)-5,6-dihydro-2H-pyran-2-one]	3.6 nM
Cc1cc(SC2C(=O)CC(CCc3ccc(N)cc3)(C3CCCCC3)OC2=O)c(C(C)(C)C)cc1CO (stereo not drawn) [PD 178390 Analog 36]	3.2 nM
Cc1cc(SC2C(=O)CC(CCc3ccccc3)(c3ccc(OCCO)cc3)OC2=O)c(C(C)(C)C)cc1O (stereo not drawn) [3-[(2-tert-butyl-4-hydroxy-5-methylphenyl)sulfanyl]-4-hydroxy-6-[4-(2-hydroxyethoxy)phenyl]-6-(2-phenylethyl)-5,6-dihydro-2H-pyran-2-one]	3.7 nM
Cc1ccc(C(C)(C)C)c(SC2C(=O)CC(CCc3ccccc3)(c3ccccc3)OC2=O)c1 (stereo not drawn) [4-Hydroxy-5,6-dihydropyrone deriv. 49]	35 nM
Cc1cc(SC2C(=O)CC(CCc3ccc(N)cc3)(C(C)C)OC2=O)c(C(C)(C)C)cc1CO (stereo not drawn) [6-[2-(4-aminophenyl)ethyl]-3-{[2-tert-butyl-4-(hydroxymethyl)-5-methylphenyl]sulfanyl}-4-hydroxy-6-(propan-2-yl)-5,6-dihydro-2H-pyran-2-one]	2.7 nM
Cc1ccc(C(C)(C)C)c(SC2C(=O)CC(CCc3ccc(O)cc3)(c3ccccc3)OC2=O)c1 (stereo not drawn) [PD 178390 Analog 1]	11 nM
Cc1cc(SC2C(=O)CC(CCc3ccccc3)(c3ccccc3)OC2=O)c(C(C)(C)C)cc1CO (stereo not drawn) [PD 178390 Analog 38]	6.6 nM
Cc1cc(SC2C(=O)CC(CCc3cccc(N)c3)(c3ccccc3)OC2=O)c(C(C)(C)C)cc1CO (stereo not drawn) [6-[2-(3-aminophenyl)ethyl]-3-{[2-tert-butyl-4-(hydroxymethyl)-5-methylphenyl]sulfanyl}-4-hydroxy-6-phenyl-5,6-dihydro-2H-pyran-2-one]	4 nM
COc1cc(C(C)(C)C)c(SC2C(=O)CC(CCc3ccccc3)(c3ccccc3)OC2=O)cc1C (stereo not drawn) [3-[(2-tert-butyl-4-methoxy-5-methylphenyl)sulfanyl]-4-hydroxy-6-phenyl-6-(2-phenylethyl)-5,6-dihydro-2H-pyran-2-one]	15 nM
Cc1cc(SC2C(=O)CC(C)(CCc3ccc(O)cc3)OC2=O)c(C(C)(C)C)cc1CO (stereo not drawn) [PD 178390 Analog 12]	4.3 nM
Cc1cc(SC2C(=O)CC(CCc3ccccc3)(c3ccc(OCCO)cc3)OC2=O)c(C(C)(C)C)cc1CO (stereo not drawn) [3-{[2-tert-butyl-4-(hydroxymethyl)-5-methylphenyl]sulfanyl}-4-hydroxy-6-[4-(2-hydroxyethoxy)phenyl]-6-(2-phenylethyl)-5,6-dihydro-2H-pyran-2-one]	1.4 nM
Cc1ccc(C(C)(C)C)c(SC2C(=O)CC(CCc3ccccc3)(c3ccc(N)cc3)OC2=O)c1 (stereo not drawn) [6-(4-aminophenyl)-3-[(2-tert-butyl-5-methylphenyl)sulfanyl]-4-hydroxy-6-(2-phenylethyl)-5,6-dihydro-2H-pyran-2-one]	32 nM
Cc1cc(SC2C(=O)CC(CCc3ccccc3)(c3ccccc3)OC2=O)c(C(C)(C)C)cc1OCCO (stereo not drawn) [PD 178390 Analog 41]	6.8 nM
Cc1ccc(C(C)(C)C)c(SC2C(=O)CC(CCc3ccccc3)(c3ccc(O)cc3)OC2=O)c1 (stereo not drawn) [3-[(2-tert-butyl-5-methylphenyl)sulfanyl]-4-hydroxy-6-(4-hydroxyphenyl)-6-(2-phenylethyl)-5,6-dihydro-2H-pyran-2-one]	40 nM
Cc1cc(SC2C(=O)CC(CCc3cccc(O)c3)(c3ccccc3)OC2=O)c(C(C)(C)C)cc1CO (stereo not drawn) [3-{[2-tert-butyl-4-(hydroxymethyl)-5-methylphenyl]sulfanyl}-4-hydroxy-6-[2-(3-hydroxyphenyl)ethyl]-6-phenyl-5,6-dihydro-2H-pyran-2-one]	2.5 nM
Cc1cc(SC2C(=O)CC(CCc3ccc(O)cc3)(C3CCCCC3)OC2=O)c(C(C)(C)C)cc1CO (stereo not drawn) [PD 178390 Analog 21]	4.1 nM
Cc1cc(SC2C(=O)CC(CCc3ccccc3)(c3ccc(OCCO)cc3)OC2=O)c(C(C)(C)C)cc1OCCO (stereo not drawn) [3-{[2-tert-butyl-4-(2-hydroxyethoxy)-5-methylphenyl]sulfanyl}-4-hydroxy-6-[4-(2-hydroxyethoxy)phenyl]-6-(2-phenylethyl)-5,6-dihydro-2H-pyran-2-one]	6.4 nM
Cc1cc(SC2C(=O)CC(CCc3ccc(O)cc3)(c3ccc(O)cc3)OC2=O)c(C(C)(C)C)cc1CO (stereo not drawn) [3-{[2-tert-butyl-4-(hydroxymethyl)-5-methylphenyl]sulfanyl}-4-hydroxy-6-(4-hydroxyphenyl)-6-[2-(4-hydroxyphenyl)ethyl]-5,6-dihydro-2H-pyran-2-one]	120 nM
Cc1cc(SC2C(=O)CC(CCc3ccccc3)(c3ccccc3)OC2=O)c(C(C)(C)C)cc1O (stereo not drawn) [3-[(2-tert-butyl-4-hydroxy-5-methylphenyl)sulfanyl]-4-hydroxy-6-phenyl-6-(2-phenylethyl)-5,6-dihydro-2H-pyran-2-one]	33 nM
Cc1cc(SC2C(=O)CC(CCc3ccc(N)cc3)(c3ccccc3)OC2=O)c(C(C)(C)C)cc1CO (stereo not drawn) [PD 178390 Analog 33]	3.1 nM
Cc1ccc(C(C)(C)C)c(SC2C(=O)CC(CCc3ccc(N)cc3)(c3ccccc3)OC2=O)c1 (stereo not drawn) [6-[2-(4-aminophenyl)ethyl]-3-[(2-tert-butyl-5-methylphenyl)sulfanyl]-4-hydroxy-6-phenyl-5,6-dihydro-2H-pyran-2-one]	24 nM
Cc1ccc(C(C)(C)C)c(SC2C(=O)CC(CCc3ccccc3)(c3ccc(OCCO)cc3)OC2=O)c1 (stereo not drawn) [3-[(2-tert-butyl-5-methylphenyl)sulfanyl]-4-hydroxy-6-[4-(2-hydroxyethoxy)phenyl]-6-(2-phenylethyl)-5,6-dihydro-2H-pyran-2-one]	12 nM
